Experimental data reported in patent US20160220569A1, “CDK4/6 Inhibitor Dosage Formulations For The Protection Of Hematopoietic Stem And Progenitor Cells During Chemotherapy” (G1 Therapeutics, Inc., priority 2015, published 2016).
Where two headings read alike, the source gives them in different places.

Assay: 14-day oral gavage toxicokinetic study in rats
Format: in vivo
Settings: rat, plasma, po; for concentration at 0.5 h / concentration at 1 h / concentration at 2 h / concentration at 4 h / concentration at 8 h / concentration at 12 h / concentration at 24 h / concentration at […]: rats; for half-life: read-out: t½ (converted)
Method: Plasma was obtained from blood samples collected from rats in a composite sampling scheme, with 3 samples collected per sex, per dose, at each target collection time, as illustrated in Table 21 to Table 25. Samples were collected from the vehicle control group on Day 1 and Day 14 at 3 hour after administration. […] Blood samples were collected in tubes containing K3EDTA as an anticoagulant and placed on ice until processed to plasma via centrifugation. Samples were stored frozen at −80° C. until shipment to the bioanalytical laboratory for analysis.
The following parameters were determined:
Cmax: Maximum observed plasma concentration (ng/mL).
A value of 0 ng/mL was assigned to all values below the lower limit of quantitation (BLQ, <10.0 ng/mL).
AUC(0-inf): Area under the plasma concentration vs. time curve extrapolated from 0 to infinity (ng*h/mL), calculated as AUC(0-t)+AUC(t-inf) where AUC(t-inf) is calculated as last measurable concentration (CLast) divided by ke, where ke is the elimination rate constant determined by linear regression of the last three analytically measured points on the log plasma concentration vs. time curve. The selection criteria of the data points for inclusion in the calculation of ke required that at least three data points representing the terminal phase (after Tmax) were regressed and that R2≧0.850 when rounded.
CL: Clearance (L/h/kg), calculated as the dose divided by AUC(0-t).
Vd: Volume of distribution (L/kg), calculated as dose divided by the product of ke and AUC(0-inf).
Vdss: Steady state volume of distribution (L/kg), calculated as clearance […] mean residence time, where mean residence time is calculated as the area under the first moment curve divided by AUC(0-t).
t½: Elimination half-life (h), calculated as ln(2)/ke, where ke is the elimination rate constant determined by linear regression. Half-life was defined as not determined if regression criteria (specified in AUC(0-inf) above) were not met.
Cmax/Dose: Normalized Cmax, calculated as Cmax divided by total dose.
AUC/Dose: Normalized AUC, calculated as AUC(0-t) divided by total dose.
ii. Statistical Analysis Mean and standard deviation (SD) were calculated in Watson. Values of BLQ were assigned a value of 0 ng/mL for mean calculations. Concentration values and derived TK parameters were reported to three significant figures.

[1] = female, 30 mg/kg, oral 30 mg/kg, Study Day 1, Female
[2] = female, 30 mg/kg, oral 30 mg/kg, Study Day 14, Female
[3] = male, 2 mg/kg, oral 2 mg/kg, Study Day 1, Male
[4] = male, 2 mg/kg, oral 2 mg/kg, Study Day 14, Male

CN1CCN(c2ccc(Nc3ncc4cc5n(c4n3)C3(CCCCC3)CNC5=O)nc2)CC1 [Compound 1, 2′-((5-(4-methylpiperazin-1-yl)pyridin-2-yl)amino)-7′,8′-dihydro-6′H-spiro[cyclohexane-1,9′-pyrazino[1′,2′:1,5]pyrrolo[2,3-d]pyrimidin]-6′-one]
concentration at 0.5 h (female, 30 mg/kg, Mean Compound 1 Plasma Concentration, oral 30 mg/kg, Day 1, 0.5 h, Female): 2160 ng/mL | concentration at 1 h (female, 30 mg/kg, Mean Compound 1 Plasma Concentration, oral 30 mg/kg, Day 1, 1 h, Female): 2140 ng/mL | concentration at 2 h (female, 30 mg/kg, Mean Compound 1 Plasma Concentration, oral 30 mg/kg, Day 1, 2 h, Female): 3090 ng/mL | concentration at 4 h (female, 30 mg/kg, Mean Compound 1 Plasma Concentration, oral 30 mg/kg, Day 1, 4 h, Female): 2510 ng/mL | concentration at 8 h (female, 30 mg/kg, Mean Compound 1 Plasma Concentration, oral 30 mg/kg, Day 1, 8 h, Female): 2470 ng/mL | concentration at 12 h (female, 30 mg/kg, Mean Compound 1 Plasma Concentration, oral 30 mg/kg, Day 1, 12 h, Female): 1940 ng/mL | concentration at 24 h (female, 30 mg/kg, Mean Compound 1 Plasma Concentration, oral 30 mg/kg, Day 1, 24 h, Female): 284 ng/mL | concentration at […] (female, 30 mg/kg, Mean Compound 1 Plasma Concentration, oral 30 mg/kg, Day 1, […], Female): 92.9 ng/mL | concentration at 0.5 h (female, 30 mg/kg, Mean Compound 1 Plasma Concentration, oral 30 mg/kg, Day 14, 0.5 h, Female): 1540 ng/mL | concentration at 1 h (female, 30 mg/kg, Mean Compound 1 Plasma Concentration, oral 30 mg/kg, Day 14, 1 h, Female): 2230 ng/mL | concentration at 2 h (female, 30 mg/kg, Mean Compound 1 Plasma Concentration, oral 30 mg/kg, Day 14, 2 h, Female): 2010 ng/mL | concentration at 4 h (female, 30 mg/kg, Mean Compound 1 Plasma Concentration, oral 30 mg/kg, Day 14, 4 h, Female): 2320 ng/mL | concentration at 8 h (female, 30 mg/kg, Mean Compound 1 Plasma Concentration, oral 30 mg/kg, Day 14, 8 h, Female): 1960 ng/mL | concentration at 12 h (female, 30 mg/kg, Mean Compound 1 Plasma Concentration, oral 30 mg/kg, Day 14, 12 h, Female): 2290 ng/mL | concentration at 24 h (female, 30 mg/kg, Mean Compound 1 Plasma Concentration, oral 30 mg/kg, Day 14, 24 h, Female): 322 ng/mL | concentration at […] (female, 30 mg/kg, Mean Compound 1 Plasma Concentration, oral 30 mg/kg, Day 14, […], Female): 537 ng/mL | AUC(0-inf) [1]: 43800 ng·h/mL | AUC(0-t) [1]: 41800 ng·h/mL | Cmax [1]: 3090 ng/mL | Tmax [1]: 2 h | half-life [1]: 4.92 h | AUC(0-inf) [2]: 43200 ng·h/mL | AUC(0-t) [2]: 40600 ng·h/mL | Cmax [2]: 2320 ng/mL | Tmax [2]: 4 h | half-life [2]: 5.56 h | concentration at 1 h (male, 2 mg/kg, Compound 1 Plasma Concentration, Male, Day 1, 1 h, daily oral 2 mg/kg (Group 7), individual animals): 59.1 ng/mL | concentration at 2 h (male, 2 mg/kg, Compound 1 Plasma Concentration, Male, Day 1, 2 h, daily oral 2 mg/kg (Group 7), individual animals): 97.4 ng/mL | concentration at 4 h (male, 2 mg/kg, Compound 1 Plasma Concentration, Male, Day 1, 4 h, daily oral 2 mg/kg (Group 7), individual animals): 122 ng/mL | concentration at 8 h (male, 2 mg/kg, Compound 1 Plasma Concentration, Male, Day 1, 8 h, daily oral 2 mg/kg (Group 7), individual animals): 99 ng/mL | concentration at 12 h (male, 2 mg/kg, Compound 1 Plasma Concentration, Male, Day 1, 12 h, daily oral 2 mg/kg (Group 7), individual animals): 51.9 ng/mL | concentration at 0.5 h (male, 2 mg/kg, Compound 1 Plasma Concentration, Male, Day 14, 0.5 h, daily oral 2 mg/kg (Group 7), individual animals): 36.3 ng/mL | concentration at 2 h (male, 2 mg/kg, Compound 1 Plasma Concentration, Male, Day 14, 2 h, daily oral 2 mg/kg (Group 7), individual animals): 84.3 ng/mL | concentration at 4 h (male, 2 mg/kg, Compound 1 Plasma Concentration, Male, Day 14, 4 h, daily oral 2 mg/kg (Group 7), individual animals): 117 ng/mL | concentration at 8 h (male, 2 mg/kg, Compound 1 Plasma Concentration, Male, Day 14, 8 h, daily oral 2 mg/kg (Group 7), individual animals): 68.7 ng/mL | concentration at 12 h (male, 2 mg/kg, Compound 1 Plasma Concentration, Male, Day 14, 12 h, daily oral 2 mg/kg (Group 7), individual animals): 65.7 ng/mL | concentration at 0.5 h (male, 2 mg/kg, Mean Compound 1 Plasma Concentration, oral 2 mg/kg, Day 1, 0.5 h, Male): 57.7 ng/mL | concentration at 1 h (male, 2 mg/kg, Mean Compound 1 Plasma Concentration, oral 2 mg/kg, Day 1, 1 h, Male): 57.1 ng/mL | concentration at 2 h (male, 2 mg/kg, Mean Compound 1 Plasma Concentration, oral 2 mg/kg, Day 1, 2 h, Male): 102 ng/mL | concentration at 8 h (male, 2 mg/kg, Mean Compound 1 Plasma Concentration, oral 2 mg/kg, Day 1, 8 h, Male): 90.4 ng/mL | concentration at 12 h (male, 2 mg/kg, Mean Compound 1 Plasma Concentration, oral 2 mg/kg, Day 1, 12 h, Male): 53.7 ng/mL | concentration at 0.5 h (male, 2 mg/kg, Mean Compound 1 Plasma Concentration, oral 2 mg/kg, Day 14, 0.5 h, Male): 47 ng/mL | concentration at 1 h (male, 2 mg/kg, Mean Compound 1 Plasma Concentration, oral 2 mg/kg, Day 14, 1 h, Male): 57.1 ng/mL | concentration at 2 h (male, 2 mg/kg, Mean Compound 1 Plasma Concentration, oral 2 mg/kg, Day 14, 2 h, Male): 94.9 ng/mL | concentration at 4 h (male, 2 mg/kg, Mean Compound 1 Plasma Concentration, oral 2 mg/kg, Day 14, 4 h, Male): 116 ng/mL | concentration at 8 h (male, 2 mg/kg, Mean Compound 1 Plasma Concentration, oral 2 mg/kg, Day 14, 8 h, Male): 94.2 ng/mL | concentration at 12 h (male, 2 mg/kg, Mean Compound 1 Plasma Concentration, oral 2 mg/kg, Day 14, 12 h, Male): 54 ng/mL | AUC(0-t) [3]: 1390 ng·h/mL | Cmax [3]: 126 ng/mL | Tmax [3]: 4 h | half-life [3]: 5.32 h | AUC(0-t) [4]: 1360 ng·h/mL | Cmax [4]: 116 ng/mL | Tmax [4]: 4 h | half-life [4]: 4.98 h
